In article PMC9516332 (Frontiers in Oncology, 2022):
Like-named read-outs stand apart in the source and are kept apart here.

Experiments:
[1] = test system: AP-1060 (ETV6-NTRK3); assay: Cell viability assay; conditions: read-out: IC50 in cell proliferation assay
[2] = test system: 134 cancer cell lines; assay: Cell viability assay (ATPlite, 72 hours), IC50 on cancer cell line panel

With `CC#CC(=O)N1CCC[C@H]1c1nc(-c2ccc(C(=O)Nc3ccccn3)cc2)c2c(N)nccn12` [acalabrutinib] the IC50 [1] was over 31.6 µM, the IC50 ([2]; HEC-6, read-out: IC50 in cell proliferation assay) was over 31.6 µM and the IC50 ([2]; Homo sapiens, 769-P, read-out: IC50 in cell proliferation assay) was over 31.6 µM. The IC50 ([2]; Homo sapiens, 786-0, read-out: IC50 in cell proliferation assay) was over 31.6 µM, the IC50 ([2]; Homo sapiens, A 172, read-out: IC50 in cell proliferation assay) was over 31.6 µM and the IC50 ([2]; Homo sapiens, A204, read-out: IC50 in cell proliferation assay) was over 31.6 µM. For the same compound, the IC50 ([2]; Homo sapiens, A498, read-out: IC50 in cell proliferation assay) was over 31.6 µM, the IC50 ([2]; Homo sapiens, A549, read-out: IC50 in cell proliferation assay) was over 31.6 µM and the IC50 ([2]; Homo sapiens, A704, read-out: IC50 in cell proliferation assay) was over 31.6 µM. For the same compound, the IC50 ([2]; Homo sapiens, A-375, read-out: IC50 in cell proliferation assay) was over 31.6 µM, the IC50 ([2]; Homo sapiens, A-427, read-out: IC50 in cell proliferation assay) was over 31.6 µM and the IC50 ([2]; Homo sapiens, ACHN, read-out: IC50 in cell proliferation assay) was 12.6 µM. It also gave an IC50 ([2]; Homo sapiens, AN3-CA, read-out: IC50 in cell proliferation assay) of over 31.6 µM, an IC50 ([2]; Homo sapiens, ASPC1, read-out: IC50 in cell proliferation assay) of over 31.6 µM and an IC50 ([2]; Homo sapiens, AU565, read-out: IC50 in cell proliferation assay) of 0.685 µM. For the same compound, the IC50 ([2]; Homo sapiens, BT-20, read-out: IC50 in cell proliferation assay) was over 31.6 µM, the IC50 ([2]; Homo sapiens, BT-474, read-out: IC50 in cell proliferation assay) was 0.594 µM and the IC50 ([2]; Homo sapiens, BT-549, read-out: IC50 in cell proliferation assay) was over 31.6 µM. The IC50 ([2]; Homo sapiens, BXPC-3, read-out: IC50 in cell proliferation assay) was over 31.6 µM, the IC50 ([2]; Homo sapiens, C-33-A, read-out: IC50 in cell proliferation assay) was 2.01 µM and the IC50 ([2]; Homo sapiens, CAL-27, read-out: IC50 in cell proliferation assay) was over 31.6 µM. It also gave an IC50 ([2]; Homo sapiens, CCF-STTG1, read-out: IC50 in cell proliferation assay) of over 31.6 µM, an IC50 ([2]; Homo sapiens, CCRF-CEM, read-out: IC50 in cell proliferation assay) of over 31.6 µM and an IC50 ([2]; Homo sapiens, COLO 205, read-out: IC50 in cell proliferation assay) of over 31.6 µM. The IC50 ([2]; Homo sapiens, COLO-829, read-out: IC50 in cell proliferation assay) was over 31.6 µM, the IC50 ([2]; Homo sapiens, DLD-1, read-out: IC50 in cell proliferation assay) was over 31.6 µM and the IC50 ([2]; Homo sapiens, DU-145, read-out: IC50 in cell proliferation assay) was over 31.6 µM. For the same compound, the IC50 ([2]; Homo sapiens, DU-4475, read-out: IC50 in cell proliferation assay) was over 31.6 µM, the IC50 ([2]; Homo sapiens, Daoy, read-out: IC50 in cell proliferation assay) was over 31.6 µM and the IC50 ([2]; Homo sapiens, DoTc2-4510, read-out: IC50 in cell proliferation assay) was 9.83 µM. For the same compound, the IC50 ([2]; Homo sapiens, EOL1, read-out: IC50 in cell proliferation assay) was 25.8 µM, the IC50 ([2]; Homo sapiens, FaDu, read-out: IC50 in cell proliferation assay) was 28.5 µM and the IC50 ([2]; Homo sapiens, G-361, read-out: IC50 in cell proliferation assay) was over 31.6 µM. It also gave an IC50 ([2]; Homo sapiens, HCC827, read-out: IC50 in cell proliferation assay) of over 31.6 µM, an IC50 ([2]; Homo sapiens, HCC4006, read-out: IC50 in cell proliferation assay) of 17.4 µM and an IC50 ([2]; Homo sapiens, HCT-15, read-out: IC50 in cell proliferation assay) of over 31.6 µM. It also gave an IC50 ([2]; Homo sapiens, HCT-116, read-out: IC50 in cell proliferation assay) of over 31.6 µM, an IC50 ([2]; Homo sapiens, HEC-1, read-out: IC50 in cell proliferation assay) of over 31.6 µM and an IC50 ([2]; Homo sapiens, HEC-1B, read-out: IC50 in cell proliferation assay) of over 31.6 µM. It also gave an IC50 ([2]; Homo sapiens, HL-60, read-out: IC50 in cell proliferation assay) of over 31.6 µM, an IC50 ([2]; Homo sapiens, HT, read-out: IC50 in cell proliferation assay) of over 31.6 µM and an IC50 ([2]; Homo sapiens, HT-1080, read-out: IC50 in cell proliferation assay) of over 31.6 µM. The IC50 ([2]; Homo sapiens, Hs746T, read-out: IC50 in cell proliferation assay) was 9.68 µM, the IC50 ([2]; Homo sapiens, Hs-578T, read-out: IC50 in cell proliferation assay) was over 31.6 µM and the IC50 ([2]; Homo sapiens, HuTu80, read-out: IC50 in cell proliferation assay) was over 31.6 µM. It also gave an IC50 ([2]; Homo sapiens, J82, read-out: IC50 in cell proliferation assay) of over 31.6 µM, an IC50 ([2]; Homo sapiens, Jurkat E6.1, read-out: IC50 in cell proliferation assay) of 29.6 µM and an IC50 ([2]; Homo sapiens, K562, read-out: IC50 in cell proliferation assay) of over 31.6 µM. For the same compound, the IC50 ([2]; Homo sapiens, KATO III, read-out: IC50 in cell proliferation assay) was 31.3 µM, the IC50 ([2]; Homo sapiens, KG-1, read-out: IC50 in cell proliferation assay) was over 31.6 µM and the IC50 ([2]; Homo sapiens, KLE, read-out: IC50 in cell proliferation assay) was over 31.6 µM. For the same compound, the IC50 ([2]; Homo sapiens, KMS-11, read-out: IC50 in cell proliferation assay) was over 31.6 µM, the IC50 ([2]; Homo sapiens, KU812, read-out: IC50 in cell proliferation assay) was over 31.6 µM and the IC50 ([2]; Homo sapiens, Kasumi 1, read-out: IC50 in cell proliferation assay) was over 31.6 µM. It also gave an IC50 ([2]; Homo sapiens, LC-2-ad, read-out: IC50 in cell proliferation assay) of 19.6 µM, an IC50 ([2]; Homo sapiens, LNCaP-Clone-FGC, read-out: IC50 in cell proliferation assay) of over 31.6 µM and an IC50 ([2]; Homo sapiens, LS174T, read-out: IC50 in cell proliferation assay) of over 31.6 µM. The IC50 ([2]; Homo sapiens, LS-411N, read-out: IC50 in cell proliferation assay) was over 31.6 µM, the IC50 ([2]; Homo sapiens, LoVo, read-out: IC50 in cell proliferation assay) was over 31.6 µM and the IC50 ([2]; Homo sapiens, MCF7, read-out: IC50 in cell proliferation assay) was over 31.6 µM. The IC50 ([2]; Homo sapiens, MDA-MB-231, read-out: IC50 in cell proliferation assay) was over 31.6 µM, the IC50 ([2]; Homo sapiens, MDA-MB-453, read-out: IC50 in cell proliferation assay) was over 31.6 µM and the IC50 ([2]; Homo sapiens, MDA-MB-468, read-out: IC50 in cell proliferation assay) was over 31.6 µM. It also gave an IC50 ([2]; Homo sapiens, MG-63, read-out: IC50 in cell proliferation assay) of over 31.6 µM, an IC50 ([2]; Homo sapiens, MIA PaCa-2, read-out: IC50 in cell proliferation assay) of over 31.6 µM and an IC50 ([2]; Homo sapiens, MKN-45, read-out: IC50 in cell proliferation assay) of over 31.6 µM. The IC50 ([2]; Homo sapiens, MOLM-13, read-out: IC50 in cell proliferation assay) was 9.38 µM, the IC50 ([2]; Homo sapiens, MOLT-4, read-out: IC50 in cell proliferation assay) was over 31.6 µM and the IC50 ([2]; Homo sapiens, MV4-11, read-out: IC50 in cell proliferation assay) was over 31.6 µM. It also gave an IC50 ([2]; Homo sapiens, MeWo, read-out: IC50 in cell proliferation assay) of over 31.6 µM, an IC50 ([2]; Homo sapiens, NCCIT, read-out: IC50 in cell proliferation assay) of over 31.6 µM and an IC50 ([2]; Homo sapiens, NCI-H82, read-out: IC50 in cell proliferation assay) of over 31.6 µM. The IC50 ([2]; Homo sapiens, NCI-H460, read-out: IC50 in cell proliferation assay) was over 31.6 µM, the IC50 ([2]; Homo sapiens, NCI-H661, read-out: IC50 in cell proliferation assay) was 11 µM and the IC50 ([2]; Homo sapiens, NCI-H716, read-out: IC50 in cell proliferation assay) was over 31.6 µM. It also gave an IC50 ([2]; Homo sapiens, NCI-H1650, read-out: IC50 in cell proliferation assay) of over 31.6 µM, an IC50 ([2]; Homo sapiens, NCI-H1975, read-out: IC50 in cell proliferation assay) of over 31.6 µM and an IC50 ([2]; Homo sapiens, NCI-H2228, read-out: IC50 in cell proliferation assay) of over 31.6 µM. For the same compound, the IC50 ([2]; Homo sapiens, OVCAR-3, read-out: IC50 in cell proliferation assay) was over 31.6 µM, the IC50 ([2]; Homo sapiens, PFSK-1, read-out: IC50 in cell proliferation assay) was over 31.6 µM and the IC50 ([2]; Homo sapiens, RL95-2, read-out: IC50 in cell proliferation assay) was over 31.6 µM. For the same compound, the IC50 ([2]; Homo sapiens, RPMI-7951, read-out: IC50 in cell proliferation assay) was over 31.6 µM, the IC50 ([2]; Homo sapiens, RS4-11, read-out: IC50 in cell proliferation assay) was over 31.6 µM and the IC50 ([2]; Homo sapiens, Rec1, read-out: IC50 in cell proliferation assay) was 0.021 µM. It also gave an IC50 ([2]; Homo sapiens, SHP77, read-out: IC50 in cell proliferation assay) of over 31.6 µM, an IC50 ([2]; Homo sapiens, SK-BR-3, read-out: IC50 in cell proliferation assay) of 0.409 µM and an IC50 ([2]; Homo sapiens, SK-N-AS, read-out: IC50 in cell proliferation assay) of over 31.6 µM. For the same compound, the IC50 ([2]; Homo sapiens, SK-N-FI, read-out: IC50 in cell proliferation assay) was over 31.6 µM, the IC50 ([2]; Homo sapiens, SK-N-MC, read-out: IC50 in cell proliferation assay) was over 31.6 µM and the IC50 ([2]; Homo sapiens, SK-N-SH, read-out: IC50 in cell proliferation assay) was 9.87 µM. For the same compound, the IC50 ([2]; Homo sapiens, SNU-5, read-out: IC50 in cell proliferation assay) was over 31.6 µM, the IC50 ([2]; Homo sapiens, SNU-16, read-out: IC50 in cell proliferation assay) was over 31.6 µM and the IC50 ([2]; Homo sapiens, SNU-C2B, read-out: IC50 in cell proliferation assay) was over 31.6 µM. It also gave an IC50 ([2]; Homo sapiens, SU-DHL-1, read-out: IC50 in cell proliferation assay) of over 31.6 µM, an IC50 ([2]; Homo sapiens, SU-DHL-6, read-out: IC50 in cell proliferation assay) of 0.003 µM and an IC50 ([2]; Homo sapiens, SUP-T1, read-out: IC50 in cell proliferation assay) of over 31.6 µM. For the same compound, the IC50 ([2]; Homo sapiens, SW48, read-out: IC50 in cell proliferation assay) was 4.43 µM, the IC50 ([2]; Homo sapiens, SW480, read-out: IC50 in cell proliferation assay) was over 31.6 µM and the IC50 ([2]; Homo sapiens, SW626, read-out: IC50 in cell proliferation assay) was over 31.6 µM. The IC50 ([2]; Homo sapiens, SW780, read-out: IC50 in cell proliferation assay) was over 31.6 µM, the IC50 ([2]; Homo sapiens, SW837, read-out: IC50 in cell proliferation assay) was over 31.6 µM and the IC50 ([2]; Homo sapiens, SW872, read-out: IC50 in cell proliferation assay) was over 31.6 µM. For the same compound, the IC50 ([2]; Homo sapiens, SW900, read-out: IC50 in cell proliferation assay) was over 31.6 µM, the IC50 ([2]; Homo sapiens, SW948, read-out: IC50 in cell proliferation assay) was over 31.6 µM and the IC50 ([2]; Homo sapiens, SW982, read-out: IC50 in cell proliferation assay) was over 31.6 µM. It also gave an IC50 ([2]; Homo sapiens, SW-620, read-out: IC50 in cell proliferation assay) of over 31.6 µM, an IC50 ([2]; Homo sapiens, T98G, read-out: IC50 in cell proliferation assay) of over 31.6 µM and an IC50 ([2]; Homo sapiens, TCC-SUP, read-out: IC50 in cell proliferation assay) of over 31.6 µM. For the same compound, the IC50 ([2]; Homo sapiens, THP-1, read-out: IC50 in cell proliferation assay) was over 31.6 µM, the IC50 ([2]; Homo sapiens, U2OS, read-out: IC50 in cell proliferation assay) was over 31.6 µM and the IC50 ([2]; Homo sapiens, U-87 MG, read-out: IC50 in cell proliferation assay) was over 31.6 µM. The IC50 ([2]; Homo sapiens, U-118-MG, read-out: IC50 in cell proliferation assay) was over 31.6 µM, the IC50 ([2]; Homo sapiens, UMUC3, read-out: IC50 in cell proliferation assay) was over 31.6 µM and the IC50 ([2]; Hs766T, read-out: IC50 in cell proliferation assay) was over 31.6 µM. It also gave an IC50 ([2]; L-82, read-out: IC50 in cell proliferation assay) of over 31.6 µM and an IC50 ([2]; Rh30, read-out: IC50 in cell proliferation assay) of over 31.6 µM.
